Assay results from PubChem BioAssay AID330 (DTP/NCI, 2004).
Several values for one entry are separate records, joined by “and”; a condition that tells them apart may be missing. Equal entries are not always repeated. Toxic doses and inconclusive results are not listed.

Tested on: P388 leukemia ip, CD2F1 mice, survival T/C
Assay: NCI In Vivo Anticancer Drug Screen. Data for tumor model P388 Leukemia (intraperitoneal) in CD2F1 (CDF1) mice
Settings: endpoint: median survival time, higher = longer survival
Outline: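 Mice carrying the transplanted tumor received test compound or vehicle. Survival was recorded in each group, and the value is the treated-group measurement divided by that of the vehicle-treated control group.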

[1] = dose: 100.0 mg/kg/injection, schedule: Q04DX002 (ip), vehicle: saline with Tween-80
[2] = dose: 200.0 mg/kg/injection, schedule: Q04DX002 (ip), vehicle: saline with Tween-80
[3] = dose: 60.0 mg/kg/injection, schedule: Q01DX005 (ip), vehicle: saline with Tween-80
[4] = dose: 120.0 mg/kg/injection, schedule: Q01DX005 (ip), vehicle: saline with Tween-80
[5] = dose: 240.0 mg/kg/injection, schedule: Q01DX005 (ip), vehicle: saline with Tween-80
[6] = dose: 50.0 mg/kg/injection, schedule: Q01DX005 (ip), vehicle: saline with Tween-80
[7] = dose: 100.0 mg/kg/injection, schedule: Q01DX005 (ip), vehicle: saline with Tween-80
[8] = dose: 200.0 mg/kg/injection, schedule: Q01DX005 (ip), vehicle: saline with Tween-80
[9] = dose: 50.0 mg/kg/injection, schedule: Q01DX005 (ip), vehicle: Klucel (hydroxypropylcellulose) (HPC)
[10] = dose: 100.0 mg/kg/injection, schedule: Q01DX005 (ip), vehicle: Klucel (hydroxypropylcellulose) (HPC)
[11] = dose: 60.0 mg/kg/injection, schedule: Q01DX005 (ip), vehicle: Klucel (hydroxypropylcellulose) (HPC)
[12] = dose: 120.0 mg/kg/injection, schedule: Q01DX005 (ip), vehicle: Klucel (hydroxypropylcellulose) (HPC)
[13] = dose: 240.0 mg/kg/injection, schedule: Q01DX005 (ip), vehicle: Klucel (hydroxypropylcellulose) (HPC)

## C/C(=N\N=C(N)N)c1ccc2c(c1)Cc1cc(/C(C)=N/N=C(N)N)ccc1-2
dose: 3.12 mg/kg/injection, schedule: Q04DX002 (ip), vehicle: saline with Tween-80
  T/C: 100 % of control and 107 % of control
dose: 6.25 mg/kg/injection, schedule: Q04DX002 (ip), vehicle: saline with Tween-80
  T/C: 107 % of control and 108 % of control
dose: 12.5 mg/kg/injection, schedule: Q04DX002 (ip), vehicle: saline with Tween-80
  T/C: 115 % of control (2×) and 122 % of control
dose: 25.0 mg/kg/injection, schedule: Q04DX002 (ip), vehicle: saline with Tween-80
  T/C: 120 % of control and 121 % of control and 123 % of control
dose: 50.0 mg/kg/injection, schedule: Q04DX002 (ip), vehicle: saline with Tween-80
  T/C: 115 % of control and 121 % of control and 124 % of control
[1]
  T/C: 112 % of control and 122 % of control
[2]
  T/C: 122 % of control

## CC(C)(CO)CBr
dose: 100.0 mg/kg/injection, schedule: Q01DX009 (ip), vehicle: saline sonified
  T/C: 100 % of control
dose: 200.0 mg/kg/injection, schedule: Q01DX009 (ip), vehicle: saline sonified
  T/C: 95 % of control
dose: 400.0 mg/kg/injection, schedule: Q01DX009 (ip), vehicle: saline sonified
  T/C: 95 % of control

## COc1cc(/C=C\C=O)cc(OC)c1OC
[1]
  T/C: 99 % of control
[2]
  T/C: 110 % of control
dose: 400.0 mg/kg/injection, schedule: Q04DX002 (ip), vehicle: saline with Tween-80
  T/C: 108 % of control

## Cc1nc2ccccc2nc1N1C(=O)c2ccccc2C1=O
[3]
  T/C: 97 % of control
[4]
  T/C: 99 % of control
[5]
  T/C: 95 % of control

## N#C/C(=N\NC(=O)c1cccs1)c1ccccc1Cl
[6]
  T/C: 93 % of control
[7]
  T/C: 103 % of control
[8]
  T/C: 106 % of control

## C/C(=N/NC(N)=O)c1cccc(/C(C)=N/NC(N)=O)n1.[Cl][Cu][Cl]
dose: 3.12 mg/kg/injection, schedule: Q01DX009 (ip), vehicle: saline
  T/C: 108 % of control
dose: 6.25 mg/kg/injection, schedule: Q01DX009 (ip), vehicle: saline
  T/C: 94 % of control
dose: 12.5 mg/kg/injection, schedule: Q01DX009 (ip), vehicle: saline
  T/C: 99 % of control

## O=C1C=CC(=O)C1=Cc1ccccc1
dose: 2.5 mg/kg/injection, schedule: Q04DX002 (ip), vehicle: saline with Tween-80
  T/C: 95 % of control
dose: 5.0 mg/kg/injection, schedule: Q04DX002 (ip), vehicle: saline with Tween-80
  T/C: 97 % of control

## Cc1cc(=O)[nH]c2cc(O)ccc12
dose: 25.0 mg/kg/injection, schedule: Q01DX005 (ip), vehicle: Klucel (hydroxypropylcellulose) (HPC)
  T/C: 100 % of control
[9]
  T/C: 93 % of control
[10]
  T/C: 98 % of control

## COc1cc(C=Nc2ccc3c(c2)OCO3)cc(OC)c1OC
[3]
  T/C: 103 % of control
[4]
  T/C: 100 % of control
[5]
  T/C: 86 % of control

## CC1=C(S(=O)(=O)c2ccccc2)C(c2ccccc2)N(C)O1 (configuration not stated)
[11]
  T/C: 102 % of control
[12]
  T/C: 103 % of control
[13]
  T/C: 98 % of control

## CC(C)(C)C(=O)Oc1ccc[nH]c1=O
dose: 25.0 mg/kg/injection, schedule: Q01DX009 (ip), vehicle: saline
  T/C: 100 % of control and 110 % of control
dose: 50.0 mg/kg/injection, schedule: Q01DX009 (ip), vehicle: saline
  T/C: 106 % of control and 116 % of control
dose: 100.0 mg/kg/injection, schedule: Q01DX009 (ip), vehicle: saline
  T/C: 100 % of control and 116 % of control
dose: 200.0 mg/kg/injection, schedule: Q01DX009 (ip), vehicle: saline
  T/C: 121 % of control and 94 % of control
dose: 400.0 mg/kg/injection, schedule: Q01DX009 (ip), vehicle: saline
  T/C: 106 % of control and 109 % of control

## Clc1nccc2c1ncn2[Te]n1cnc2c(Cl)nccc21
dose: 12.5 mg/kg/injection, schedule: Q04DX002 (ip), vehicle: saline
  T/C: 105 % of control
dose: 25.0 mg/kg/injection, schedule: Q04DX002 (ip), vehicle: saline
  T/C: 103 % of control

## CC(C)(OC(=O)N=[N+]=[N-])c1ccc(N=Nc2ccccc2)cc1
dose: 50.0 mg/kg/injection, schedule: Q01DX009 (ip), vehicle: saline + alcohol
  T/C: 94 % of control
dose: 100.0 mg/kg/injection, schedule: Q01DX009 (ip), vehicle: saline + alcohol
  T/C: 98 % of control
dose: 200.0 mg/kg/injection, schedule: Q01DX009 (ip), vehicle: saline + alcohol
  T/C: 87 % of control

## CNC(=O)N(C)N=NCCCl
[6]
  T/C: 175 % of control
dose: 52.5 mg/kg/injection, schedule: Q01DX005 (ip), vehicle: saline with Tween-80
  T/C: 161 % of control
[7]
  T/C: 196 % of control
dose: 105.0 mg/kg/injection, schedule: Q01DX005 (ip), vehicle: saline with Tween-80
  T/C: 181 % of control
[8]
  T/C: 297 % of control
dose: 210.0 mg/kg/injection, schedule: Q01DX005 (ip), vehicle: saline with Tween-80
  T/C: 297 % of control
dose: 400.0 mg/kg/injection, schedule: Q01DX005 (ip), vehicle: saline with Tween-80
  T/C: 99 % of control

## O=NNc1ccc(S(=O)(=O)c2ccc3ccccc3c2)cn1
dose: 3.12 mg/kg/injection, schedule: Q01DX009 (ip), vehicle: water
  T/C: 120 % of control
dose: 6.25 mg/kg/injection, schedule: Q01DX009 (ip), vehicle: water
  T/C: 115 % of control
dose: 12.5 mg/kg/injection, schedule: Q01DX009 (ip), vehicle: water
  T/C: 116 % of control
dose: 25.0 mg/kg/injection, schedule: Q01DX009 (ip), vehicle: water
  T/C: 109 % of control

## O=C([OH2+])C[N]1C(=O)C[NH][Ga]1[Cl].O=C([OH2+])C[N]1C(=O)C[NH][Ga]1[Cl]
[9]
  T/C: 108 % of control
[10]
  T/C: 100 % of control
dose: 200.0 mg/kg/injection, schedule: Q01DX005 (ip), vehicle: Klucel (hydroxypropylcellulose) (HPC)
  T/C: 98 % of control

## c1csc(-c2cc(-c3cc(-c4cccs4)[nH]n3)n[nH]2)c1
[11]
  T/C: 102 % of control
[12]
  T/C: 96 % of control
[13]
  T/C: 90 % of control

## COC(=O)c1c(C(=O)OC)c2ccc3ccccc3n2c1-c1ccccc1
dose: 12.5 mg/kg/injection, schedule: Q01DX001 (ip), vehicle: saline with Tween-80
  T/C: 115 % of control
dose: 25.0 mg/kg/injection, schedule: Q01DX001 (ip), vehicle: saline with Tween-80
  T/C: 94 % of control
dose: 50.0 mg/kg/injection, schedule: Q01DX001 (ip), vehicle: saline with Tween-80
  T/C: 94 % of control
dose: 200.0 mg/kg/injection, schedule: Q01DX001 (ip), vehicle: saline with Tween-80
  T/C: 93 % of control
dose: 400.0 mg/kg/injection, schedule: Q01DX001 (ip), vehicle: saline with Tween-80
  T/C: 100 % of control

## CCC[CH2][Sn]([Cl])([Cl])[CH2]CCC.c1ccc(-c2nnc(-c3ccccn3)nc2-c2ccccc2)cc1
[11]
  T/C: 106 % of control
[12]
  T/C: 106 % of control
